In this test the target is recombinant human integrin αvβ6 (Homo sapiens (Human), UniProt P06756+P18564). Nature of the test: Solid Phase Integrin αvβ6 Binding Assay (Examples B1, B2). Particulars: TGFβ1 LAP ligand, values given in four ranges, read-out: αvβ6 Inhibition IC50 (nM)-range. Summed up:
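Plates coated with recombinant human αvβ6 (2 μg/mL) compete compound against recombinant TGFβ1 LAP (0.67 μg/mL) in TBS binding buffer with 0.5 mM MnCl2, 2 h at 25 °C. Bound LAP detected with biotin-anti-hLAP and peroxidase-streptavidin; IC50 by four-parameter logistic regression.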

Chain of recombinant human integrin αvβ6 (P06756 31-992): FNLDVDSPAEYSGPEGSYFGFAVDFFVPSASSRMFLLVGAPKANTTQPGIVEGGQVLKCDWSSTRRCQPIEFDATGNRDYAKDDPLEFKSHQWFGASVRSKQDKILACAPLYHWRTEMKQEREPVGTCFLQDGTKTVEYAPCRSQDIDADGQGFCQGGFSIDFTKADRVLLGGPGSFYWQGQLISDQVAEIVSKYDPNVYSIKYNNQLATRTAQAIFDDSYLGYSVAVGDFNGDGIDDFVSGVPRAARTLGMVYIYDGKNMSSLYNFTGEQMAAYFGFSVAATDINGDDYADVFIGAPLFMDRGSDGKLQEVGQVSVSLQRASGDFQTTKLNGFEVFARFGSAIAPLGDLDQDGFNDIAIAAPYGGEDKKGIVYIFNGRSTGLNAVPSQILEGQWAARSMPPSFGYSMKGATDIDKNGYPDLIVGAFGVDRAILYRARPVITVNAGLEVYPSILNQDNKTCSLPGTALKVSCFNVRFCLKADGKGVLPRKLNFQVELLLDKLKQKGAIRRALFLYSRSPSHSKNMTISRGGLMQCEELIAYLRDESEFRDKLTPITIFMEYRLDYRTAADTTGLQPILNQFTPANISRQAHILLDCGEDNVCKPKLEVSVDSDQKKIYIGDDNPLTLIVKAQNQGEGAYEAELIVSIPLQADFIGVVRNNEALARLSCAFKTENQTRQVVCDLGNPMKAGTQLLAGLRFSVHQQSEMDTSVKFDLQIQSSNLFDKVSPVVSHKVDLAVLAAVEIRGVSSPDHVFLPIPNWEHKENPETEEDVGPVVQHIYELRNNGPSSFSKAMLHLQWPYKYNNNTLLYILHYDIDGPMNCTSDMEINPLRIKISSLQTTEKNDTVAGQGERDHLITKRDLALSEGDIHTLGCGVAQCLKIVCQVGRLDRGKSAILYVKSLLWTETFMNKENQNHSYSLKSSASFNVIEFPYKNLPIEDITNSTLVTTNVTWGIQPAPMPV
Chain of recombinant human integrin αvβ6 (P18564 22-707): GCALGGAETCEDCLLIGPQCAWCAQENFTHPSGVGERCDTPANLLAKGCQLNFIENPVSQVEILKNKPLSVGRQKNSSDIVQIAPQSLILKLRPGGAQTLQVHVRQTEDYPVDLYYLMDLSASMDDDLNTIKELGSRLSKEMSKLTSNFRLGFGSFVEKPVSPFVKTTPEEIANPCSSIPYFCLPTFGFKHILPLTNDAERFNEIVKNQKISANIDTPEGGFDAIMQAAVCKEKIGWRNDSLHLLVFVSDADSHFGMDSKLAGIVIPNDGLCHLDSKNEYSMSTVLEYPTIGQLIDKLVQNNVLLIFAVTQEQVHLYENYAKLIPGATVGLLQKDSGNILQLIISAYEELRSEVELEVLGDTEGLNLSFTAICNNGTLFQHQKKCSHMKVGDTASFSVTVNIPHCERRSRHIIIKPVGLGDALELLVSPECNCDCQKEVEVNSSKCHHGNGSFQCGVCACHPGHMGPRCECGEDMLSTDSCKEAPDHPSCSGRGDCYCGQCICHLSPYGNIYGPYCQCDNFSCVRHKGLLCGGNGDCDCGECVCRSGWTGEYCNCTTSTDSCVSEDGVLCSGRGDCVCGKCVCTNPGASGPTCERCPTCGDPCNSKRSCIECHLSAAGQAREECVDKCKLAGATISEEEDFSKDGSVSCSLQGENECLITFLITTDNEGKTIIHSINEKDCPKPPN

One may read the IC50 as the concentration at which inhibition is half-maximal. As to `CO[C@H](C)CN(CCCCc1ccc2c(n1)NCCC2)CC[C@H](Nc1cc(-n2cccn2)ncn1)C(=O)O` [Compound 77, (S)-2-((6-(1H-pyrazol-1-yl)pyrimidin-4-yl)amino)-4-(((R)-2-methoxypropyl) (4-(5,6,7,8-tetrahydro-1,8-naphthyridin-2-yl)butyl)amino) butanoic acid], the IC50 was below 50 nM.

As to `CO[C@H](C)CN(CCCCc1ccc2c(n1)NCCC2)CC[C@H](Nc1ncc(F)cn1)C(=O)O` [Compound 78, (S)-2-((5-fluoropyrimidin-2-yl)amino)-4-(((R)-2-methoxypropyl) (4-(5,6,7,8-tetrahydro-1,8-naphthyridin-2-yl)butyl)amino) butanoic acid], the IC50 is below 50 nM.

Regarding `CO[C@H](C)CN(CCCCc1ccc2c(n1)NCCC2)CC[C@H](Nc1ncnc2cn[nH]c12)C(=O)O` [Compound 79, (S)-2-((1H-pyrazolo[4,3-d]pyrimidin-7-yl)amino)-4-(((R)-2-methoxypropyl) (4-(5,6,7,8-tetrahydro-1,8-naphthyridin-2-yl)butyl)amino) butanoic acid], the IC50 was below 50 nM.

On to `CO[C@H](C)CN(CCCCc1ccc2c(n1)NCCC2)CC[C@H](Nc1cc(-c2ccccc2)ncn1)C(=O)O` [Compound 80, (S)-4-(((R)-2-methoxypropyl) (4-(5,6,7,8-tetrahydro-1,8-naphthyridin-2-yl)butyl)amino)-2-((6-phenylpyrimidin-4-yl)amino) butanoic acid], for which the IC50 was below 50 nM.

For `CO[C@H](C)CN(CCCCc1ccc2c(n1)NCCC2)CC[C@H](Nc1ncncc1-c1ccccc1)C(=O)O` [Compound 81, (S)-4-(((R)-2-methoxypropyl) (4-(5,6,7,8-tetrahydro-1,8-naphthyridin-2-yl)butyl)amino)-2-((5-phenylpyrimidin-4-yl)amino) butanoic acid], the IC50 was below 50 nM.

For the compound `Cn1ncc2c(N[C@@H](CCN(CCCCc3ccc4c(n3)NCCC4)CCOc3ccccc3)C(=O)O)ncnc21` [Compound 82, (S)-2-((1-methyl-1H-pyrazolo[3,4-d]pyrimidin-4-yl)amino)-4-((2-phenoxyethyl) (4-(5,6,7,8-tetrahydro-1,8-naphthyridin-2-yl)butyl)amino) butanoic acid], the IC50 is below 50 nM.

With `O=C(O)[C@H](CCN(CCCCc1ccc2c(n1)NCCC2)CCOc1ccccc1)Nc1ncc(Br)cn1` [Compound 83, (S)-2-((5-bromopyrimidin-2-yl)amino)-4-((2-phenoxyethyl) (4-(5,6,7,8-tetrahydro-1,8-naphthyridin-2-yl)butyl)amino) butanoic acid], the IC50 is below 50 nM.

`Cn1ncc2c(N[C@@H](CCN(CCCCc3ccc4c(n3)NCCC4)CC(F)F)C(=O)O)ncnc21` [Compound 88, (S)-4-((2,2-difluoroethyl) (4-(5,6,7,8-tetrahydro-1,8-naphthyridin-2-yl)butyl)amino)-2-((1-methyl-1H-pyrazolo[3,4-d]pyrimidin-4-yl)amino) butanoic acid]: the IC50 was above 1000 nM.

As for `O=C(O)[C@H](CCN(CCCCc1ccc2c(n1)NCCC2)CCOc1ccccc1)Nc1ncc(C(F)(F)F)cn1` [Compound 89, (S)-4-((2-phenoxyethyl) (4-(5,6,7,8-tetrahydro-1,8-naphthyridin-2-yl)butyl)amino)-2-((5-(trifluoromethyl)pyrimidin-2-yl)amino) butanoic acid], the IC50 was below 50 nM.

Consider `O=C(O)[C@H](CCN(CCCCc1ccc2c(n1)NCCC2)CCOc1ccccc1)Nc1ncnc2[nH]ncc12` [Compound 90, (S)-2-((1H-pyrazolo[3,4-d]pyrimidin-4-yl)amino)-4-((2-phenoxyethyl) (4-(5,6,7,8-tetrahydro-1,8-naphthyridin-2-yl)butyl)amino) butanoic acid], for which the IC50 is below 50 nM.

With `O=C(O)[C@H](CCN(CCCCc1ccc2c(n1)NCCC2)CCOc1ccccc1)Nc1cc(-n2cccn2)ncn1` [Compound 91, (S)-2-((6-(1H-pyrazol-1-yl)pyrimidin-4-yl)amino)-4-((2-phenoxyethyl) (4-(5,6,7,8-tetrahydro-1,8-naphthyridin-2-yl)butyl)amino) butanoic acid], the IC50 was below 50 nM.

For the compound `O=C(O)[C@H](CCN(CCCCc1ccc2c(n1)NCCC2)CCOc1ccccc1)Nc1ccnc(C(F)(F)F)n1` [Compound 92, (S)-4-((2-phenoxyethyl) (4-(5,6,7,8-tetrahydro-1,8-naphthyridin-2-yl)butyl)amino)-2-((2-(trifluoromethyl)pyrimidin-4-yl)amino) butanoic acid], the IC50 was below 50 nM.

With `O=C(O)[C@H](CCN(CCCCc1ccc2c(n1)NCCC2)CCOc1ccccc1)Nc1cc(-c2ccccc2)ncn1` [Compound 93, (S)-4-((2-phenoxyethyl) (4-(5,6,7,8-tetrahydro-1,8-naphthyridin-2-yl)butyl)amino)-2-((6-phenylpyrimidin-4-yl)amino) butanoic acid], the IC50 was below 50 nM.

For `O=C(O)[C@H](CCN(CCCCc1ccc2c(n1)NCCC2)CCOc1ccccc1)Nc1nc(-c2cccnc2)nc2ccccc12` [Compound 94, (S)-4-((2-phenoxyethyl) (4-(5,6,7,8-tetrahydro-1,8-naphthyridin-2-yl)butyl)amino)-2-((2-(pyridin-3-yl)quinazolin-4-yl)amino) butanoic acid], the IC50 is below 50 nM.

With `O=C(O)[C@H](CCN(CCCCc1ccc2c(n1)NCCC2)CC(F)F)Nc1ncc(C(F)(F)F)cn1` [Compound 95, (S)-4-((2,2-difluoroethyl) (4-(5,6,7,8-tetrahydro-1,8-naphthyridin-2-yl)butyl)amino)-2-((5-(trifluoromethyl)pyrimidin-2-yl)amino) butanoic acid], the IC50 is above 1000 nM.

As for `O=C(O)[C@H](CCN(CCCCc1ccc2c(n1)NCCC2)CC(F)F)Nc1ncc(Br)cn1` [Compound 96, (S)-2-((5-bromopyrimidin-2-yl)amino)-4-((2,2-difluoroethyl) (4-(5,6,7,8-tetrahydro-1,8-naphthyridin-2-yl)butyl)amino) butanoic acid], the IC50 was above 1000 nM.

Turning to `O=C(O)[C@H](CCN(CCCCc1ccc2c(n1)NCCC2)CC(F)F)Nc1ccnc(C(F)(F)F)n1` [Compound 97, (S)-4-((2,2-difluoroethyl) (4-(5,6,7,8-tetrahydro-1,8-naphthyridin-2-yl)butyl)amino)-2-((2-(trifluoromethyl)pyrimidin-4-yl)amino) butanoic acid], the IC50 was above 1000 nM.

`O=C(O)[C@H](CCN(CCCCc1ccc2c(n1)NCCC2)CC(F)F)Nc1cc(-n2cccn2)ncn1` [Compound 98, (S)-2-((6-(1H-pyrazol-1-yl)pyrimidin-4-yl)amino)-4-((2,2-difluoroethyl) (4-(5,6,7,8-tetrahydro-1,8-naphthyridin-2-yl)butyl)amino) butanoic acid]: the IC50 was above 1000 nM.

Take `CO[C@H](C)CN(CCCCc1ccc2c(n1)NCCC2)CC[C@H](Nc1nc(-c2cccnc2)nc2ccccc12)C(=O)O` [Compound 100, (S)-4-(((R)-2-methoxypropyl) (4-(5,6,7,8-tetrahydro-1,8-naphthyridin-2-yl)butyl)amino)-2-((2-(pyridin-3-yl)quinazolin-4-yl)amino) butanoic acid]: the IC50 was below 50 nM.

For `CS(=O)(=O)CCN(CCCCc1ccc2c(n1)NCCC2)CC[C@H](Nc1ncc(C(F)(F)F)cn1)C(=O)O` [Compound 102, (S)-4-((2-(methylsulfonyl)ethyl) (4-(5,6,7,8-tetrahydro-1,8-naphthyridin-2-yl)butyl)amino)-2-((5-(trifluoromethyl)pyrimidin-2-yl)amino) butanoic acid], the IC50 is above 1000 nM.

On to `CS(=O)(=O)CCN(CCCCc1ccc2c(n1)NCCC2)CC[C@H](Nc1ncc(Br)cn1)C(=O)O` [Compound 103, (S)-2-((5-bromopyrimidin-2-yl)amino)-4-((2-(methylsulfonyl)ethyl) (4-(5,6,7,8-tetrahydro-1,8-naphthyridin-2-yl)butyl)amino) butanoic acid], for which the IC50 was above 1000 nM.

With `CS(=O)(=O)CCN(CCCCc1ccc2c(n1)NCCC2)CC[C@H](Nc1ccnc(C(F)(F)F)n1)C(=O)O` [Compound 104, (S)-4-((2-(methylsulfonyl)ethyl) (4-(5,6,7,8-tetrahydro-1,8-naphthyridin-2-yl)butyl)amino)-2-((2-(trifluoromethyl)pyrimidin-4-yl)amino) butanoic acid], the IC50 is above 1000 nM.

`COC[C@@H](F)CN(CCCCc1ccc2c(n1)NCCC2)CC[C@H](Nc1ncnc2c1cnn2C)C(=O)O` [Compound 105, (S)-4-(((S)-2-fluoro-3-methoxypropyl) (4-(5,6,7,8-tetrahydro-1,8-naphthyridin-2-yl)butyl)amino)-2-((1-methyl-1H-pyrazolo[3,4-d]pyrimidin-4-yl)amino) butanoic acid]: the IC50 was below 50 nM.

`CO[C@H](C)CN(CCCCc1ccc2c(n1)NCCC2)CC[C@H](Nc1ccncn1)C(=O)O` [Compound 106, (S)-4-(((R)-2-methoxypropyl) (4-(5,6,7,8-tetrahydro-1,8-naphthyridin-2-yl)butyl)amino)-2-(pyrimidin-4-ylamino) butanoic acid]: the IC50 was below 50 nM.

For `CS(=O)(=O)CCN(CCCCc1ccc2c(n1)NCCC2)CC[C@H](Nc1nc(-c2cccnc2)nc2ccccc12)C(=O)O` [Compound 107, (S)-4-((2-(methylsufonyl)ethyl) (4-(5,6,7,8-tetrahydro-1,8-naphthyridin-2-yl)butyl)amino)-2-((2-(pyridin-3-yl)quinazolin-4-yl)amino) butanoic acid], the IC50 fell in the range of 250 to 1000 nM.

For `COC[C@@H](F)CN(CCCCc1ccc2c(n1)NCCC2)CC[C@H](Nc1cc(-n2cccn2)ncn1)C(=O)O` [Compound 108, (S)-2-((6-(1H-pyrazol-1-yl)pyrimidin-4-yl)amino)-4-(((S)-2-fluoro-3-methoxypropyl) (4-(5,6,7,8-tetrahydro-1,8-naphthyridin-2-yl)butyl)amino) butanoic acid], the IC50 is above 1000 nM.

Source of the values: patent US11419869B2, “Dosage forms and regimens for amino acid compounds” (Pliant Therapeutics, Inc., priority 2019, dated 2022).
